The test system of series [1] is Rattus norvegicus. The experiment in a line: Antiinflammatory activity against carrageenan-induced paw edema in Sprague-Dawley rat at 70 mg/kg, po pretreated 1 hr before carrageenan challenge measured after 4 hrs by plethysmometer. In kind it is functional. (In general: The carrageenan paw model is a standard test of acute inflammation.)
The subject of the next series is Mus musculus. The experiment in a line: Analgesic activity in Swiss albino mouse assessed as inhibition of acetic acid-induced writhing response at 70 mg/kg, po pretreated 1 hr before acetic acid challenge. In kind it is functional.
Series [2] relates to Rattus norvegicus. The experiment in a line: Gastrointestinal toxicity in Wistar rat assessed as ulcerogenic induces at 200 mg/kg, po after 17 hrs. In kind it is organism-based. Set-up: dose 200 mg/kg, route oral. The note with it: in vivo.

Molecules are shown by their SMILES.

As to `CC1(C)CC(=O)C2=C(C1)N=C1NN=C([C@@H](O)[C@@H](O)[C@H](O)CO)N1C2c1ccc(Cl)cc1` (some centres undefined), the inhibition in vivo (usually the relative decrease from the control value, in per cent) at 70 mg/kg in the series on Rattus norvegicus [1] came to 82%; in the series on Mus musculus, 56.6%. The UI in the series with Rattus norvegicus [2] is 0.5.

For `COc1ccc(C2NC(=S)NC3=C2C(=O)CC(C)(C)C3)cc1` (centres undefined), the inhibition in vivo at 70 mg/kg in the series with Rattus norvegicus [1] worked out at 71%.

Turning to `CC1(C)CC(=O)C2=C(C1)N=C1NN=C(c3ccc(Cl)cc3)N1C2c1ccc(Cl)cc1` (centres undefined), the inhibition in vivo at 70 mg/kg with Rattus norvegicus [1] was 68%.

Regarding `CC1(C)CC(=O)C2=C(C1)N=C1NN=C([C@@H](O)[C@H](O)[C@H](O)CO)N1C2c1ccc(Cl)cc1` (some centres undefined), the inhibition in vivo at 70 mg/kg in the series on Rattus norvegicus [1] turned out to be 84%; in the series with Mus musculus, 59.5%. In the series with Rattus norvegicus [2], the UI is given as 0.5.

Consider `CC(=O)OC[C@H]1O[C@@H](SC2=NC3=C(C(=O)CC(C)(C)C3)C(c3ccc(Cl)cc3)N2)[C@H](OC(C)=O)[C@@H](OC(C)=O)[C@H]1OC(C)=O` (some centres undefined), for which the inhibition in vivo at 70 mg/kg in the series with Rattus norvegicus [1] was 76%.

Turning to `CC1(C)CC(=O)C2=C(C1)N=C1NN=C([C@@H](O)[C@@H](O)[C@H](O)[C@H](O)CO)N1C2c1ccc(Cl)cc1` (some centres undefined), the inhibition in vivo at 70 mg/kg with Rattus norvegicus [1] amounted to 82%; in the series on Mus musculus, 57%. Further, the UI in the series on Rattus norvegicus [2] turned out to be 0.6.

As to `CC(=O)OC[C@H]1O[C@@H](SC2=NC3=C(C(=O)CC(C)(C)C3)C(c3ccc(Cl)cc3)N2)[C@H](OC(C)=O)[C@@H](OC(C)=O)[C@@H]1OC(C)=O` (some centres undefined), the inhibition in vivo at 70 mg/kg in the series on Rattus norvegicus [1] is 75%.

Consider `CC1(C)CC(=O)C2=C(C1)N=C1NN=C([C@H](O)[C@@H](O)[C@H](O)[C@H](O)CO)N1C2c1ccc(Cl)cc1` (some centres undefined), for which the inhibition in vivo at 70 mg/kg stood at 86% with Rattus norvegicus [1] and 73% with Mus musculus. The UI in the series on Rattus norvegicus [2] came out at 0.5.

Consider `CC1(C)CC(=O)C2=C(C1)N=C1NN=C([C@H](O)[C@@H](O)[C@H](O)CO)N1C2c1ccc(Cl)cc1` (some centres undefined), for which the inhibition in vivo at 70 mg/kg with Rattus norvegicus [1] turned out to be 82%; with Mus musculus it was 71%. Besides, the UI in the series with Rattus norvegicus [2] is reported as 0.6.

Consider `CC1(C)CC(=O)C2=C(C1)N=C1NN=C([C@H](O)[C@@H](O)[C@@H](O)[C@H](O)CO)N1C2c1ccc(Cl)cc1` (some centres undefined), for which the results for the inhibition in vivo at 70 mg/kg with Rattus norvegicus [1] and in the series on Mus musculus were 85% and 59%, respectively. Also, in the series with Rattus norvegicus [2], the UI came out at 0.8.

On to `CC1(C)CC(=O)C2=C(C1)NC(=S)NC2c1ccc(Cl)cc1` (centres undefined), for which the inhibition in vivo at 70 mg/kg in the series with Rattus norvegicus [1] was 69%.

Take `CC1(C)CC(=O)C2=C(C1)NC(=S)NC2c1ccccc1` (centres undefined): the inhibition in vivo at 70 mg/kg with Rattus norvegicus [1] amounted to 50%.

In the case of `CC(C)Cc1ccc(C(C)C(=O)O)cc1` (centres undefined) [IBUPROFEN], the values for the inhibition in vivo at 70 mg/kg with Rattus norvegicus [1] and in the series with Mus musculus were 92% and 83.5%, respectively. For the same compound, in the series with Rattus norvegicus [2], the UI is given as 1.8.

In the case of `CC1(C)CC(=O)C2=C(C1)N=C(NN)NC2c1ccc(Cl)cc1` (centres undefined), in the series with Rattus norvegicus [1], the inhibition in vivo at 70 mg/kg is 71%.

For `CC(=O)OC[C@H]1O[C@@H](SC2=NC3=C(C(=O)CC(C)(C)C3)C(c3ccc(Cl)cc3)N2)[C@H](OC(C)=O)[C@@H]1OC(C)=O` (some centres undefined), in the series on Rattus norvegicus [1], the inhibition in vivo at 70 mg/kg turned out to be 76%.

The record behind these values is ChEMBL document CHEMBL1154104, “S- and C-nucleosidoquinazoline as new nucleoside analogs with potential analgesic and anti-inflammatory activity” (Eur J Med Chem, 2009).
